We go through ten molecules from article PMC6152005, “Fluorination of Naturally Occurring N^6-Benzyladenosine Remarkably Increased Its Antiviral Activity and Selectivity” (Molecules : A Journal of Synthetic Chemistry and Natural …, 2017).

Data set [1] relates to rhabdomyosarcoma (RD) cells. Description: Toxicity on treated, uninfected RD cells (MTS/PMS readout). Format: cell-based. As to conditions: for cytotoxicity (in words): uninfected RD cells, highest concentration tested. Here is the method: (§1) (Table 2). As previously mentioned, modifications of the N^6-substituent (linker) of the BAPR scaffold led to a remarkable increase of selectivity. Here, we produced a series of BAPR analogues to evaluate the effect of the fluorination of BAPR on the replication of EV71. A cytopathic effect (CPE) reduction assay was performed with the newly synthetized analogues (compounds 5–11) in rhabdomyosarcoma (RD) cells. BAPR, N^6-isopenthenyladenosine, and N^6-furfuryladenosine were included in the screening, and the toxicity of all of the aforementioned compounds was evaluated in parallel on treated-uninfected cells.
(§2) An EV71 BrCr laboratory-adapted strain was used at a low multiplicity of infection (MOI) in a standardized antiviral assay. Briefly, freshly harvested rhadbdosarcoma (RD) cells were seeded in a 96-well plate (2 × 10^4 cells/well) and incubated at 37 °C in 5% CO2. The next day, a serial dilution of the compounds was prepared in assay medium and added to the RD cells. Then, the cells were supplemented with the viral suspension. […] Subsequently, the antiviral effect was quantified using a colorimetric readout with 3-(4,5-dimethylthiazol-2-yl)-5-(3-carboxymethoxyphenyl)-2-(4-sulfophenyl)-2H-tetrazolium/phenazine methosulfate (MTS/PMS method), and the concentration of compound at which a 50% inhibition of virus-induced cell death would be observed (EC50) was calculated from the antiviral dose-response curves. A similar assay setup was used to determine the adverse effect of the compound on uninfected, treated cells for the calculation of the CC50 (concentration of compound that reduces overall cell health with 50% as determined by the MTS/PMS method). The selectivity index (SI) was calculated as a ratio of EC50/CC50.

Assay in data set [2]: as above
The format is cell-based. The settings on record: human, uninfected rhabdomyosarcoma (RD) cells, uninfected, treated RD cells; MTS/PMS; at least three independent dose-response curves. Here is the method: as §1, §2

Another data set concerns EV71 strain BrCr. Description: Cytopathic effect (CPE) reduction antiviral assay against EV71 in RD cells (MTS/PMS readout). The format is cell-based, human enterovirus 71. The settings on record: for EC50: Enterovirus A, EV71 BrCr in RD cells, inhibition of virus-induced cell death, MTS/PMS, at least three independent dose-response curves; for SI (Selectivity Index): SI = CC50/EC50; for SI (Selectivity Index) / increase of SI relative to BAPR: EV71 BrCr, RD cells. As to the method: as §1
as §2, with “The selectivity index (SI) was calculated as a ratio of EC50/CC50.” left out

The structures appear in SMILES notation.

With `OC[C@H]1O[C@@H](n2cnc3c(NCc4ccccc4C(F)(F)F)ncnc32)[C@H](O)[C@@H]1O` [Compound 9, N^6-(2-trifluoromethylbenzyl) adenosine], the “cytotoxicity (in words)” value in data set [1] is on record as “did not show any cytotoxicity”. Besides, the CC50 in data set [2] was more than 235000 nM. Also, in the data set with EV71 strain BrCr, the EC50 was determined as 1000 ± 100 nM and the “SI (Selectivity Index)” value is more than 235.

Take `OC[C@H]1O[C@@H](n2cnc3c(NCc4cccc(C(F)(F)F)c4)ncnc32)[C@H](O)[C@@H]1O` [Compound 10, N^6-(3-trifluoromethylbenzyl) adenosine]: in data set [1], the “cytotoxicity (in words)” value is recorded as “did not show any cytotoxicity”. For the same molecule, the CC50 in data set [2] is more than 235000 nM. Moreover, the “increase of SI relative to BAPR” value with EV71 strain BrCr (relative to BAPR) is given as 230 times. Also, the “improvement (gain) in potency as compared to BAPR” value in the data set with EV71 strain BrCr (EV71 replication in RD cells, relative to BAPR) is given as “four-fold”. In addition, in the data set on EV71 strain BrCr, a half-maximal effect (EC50) was put at 68 ± 1 nM and the “SI (Selectivity Index)” value was more than 3456.

Take `OC[C@H]1O[C@@H](n2cnc3c(NCc4cccc(F)c4)ncnc32)[C@H](O)[C@@H]1O` [Compound 6, N^6-(3-fluorobenzyl) adenosine]: it took 6200 ± 1800 nM to reach half-maximal cytotoxicity in data set [2] (CC50). For the same molecule, in the data set on EV71 strain BrCr, the response was half-maximal at 240 ± 90 nM (EC50) and the “SI (Selectivity Index)” value was found to be 26.

In data set [2], `OC[C@H]1O[C@@H](n2cnc3c(NCc4ccccc4F)ncnc32)[C@H](O)[C@@H]1O` [Compound 5, N^6-(2-fluorobenzyl) adenosine] showed a CC50 of 13300 ± 3700 nM. Also, in the data set on EV71 strain BrCr, the response was half-maximal at 300 ± 50 nM (EC50) and the “SI (Selectivity Index)” value was 44.

In data set [1] (uninfected, treated RD cells, MTS/PMS, at least three independent dose-response curves), `OC[C@H]1O[C@@H](n2cnc3c(NCc4c(F)cccc4F)ncnc32)[C@H](O)[C@@H]1O` [Compound 8, N^6-(2,6-difluorobenzyl) adenosine] had a CC50 of more than 254000 nM. This molecule also gave a CC50 in data set [2] of more than 250000 nM. In the data set on EV71 strain BrCr, the 50% effective concentration (EC50) came to 210 ± 10 nM and the “SI (Selectivity Index)” value is listed as more than 1210.

For the molecule `OC[C@H]1O[C@@H](n2cnc3c(NCc4ccc(C(F)(F)F)cc4)ncnc32)[C@H](O)[C@@H]1O` [Compound 11, N^6-(4-trifluoromethylbenzyl) adenosine], the “cytotoxicity (in words)” value in data set [1] is “did not show any cytotoxicity”. Also, the CC50 in data set [2] was more than 235000 nM. Also, in the data set with EV71 strain BrCr, the half-maximal effective concentration (EC50) is 1000 ± 100 nM and the “SI (Selectivity Index)” value is more than 235.

In turn, `OC[C@H]1O[C@@H](n2cnc3c(NCc4ccc(F)cc4)ncnc32)[C@H](O)[C@@H]1O` [Compound 7, N^6-(4-fluorobenzyl) adenosine] returned a CC50 in data set [2] of 2700 ± 900 nM. The “increase of SI relative to BAPR” value with EV71 strain BrCr (relative to BAPR) is listed as 1.25 times. Also, in the data set on EV71 strain BrCr, the EC50 stood at 140 ± 50 nM and the “SI (Selectivity Index)” value is recorded as 19.

In the case of `OC[C@H]1O[C@@H](n2cnc3c(NCc4ccccc4)ncnc32)[C@H](O)[C@@H]1O` [Compound 1, N^6-benzyladenosine], the 50% cytotoxic concentration (CC50) in data set [2] worked out at 4300 ± 1600 nM. For the same molecule, in the data set with EV71 strain BrCr, the EC50 stood at 280 ± 50 nM and the “SI (Selectivity Index)” value is 15.

In turn, `OC[C@H]1O[C@@H](n2cnc3c(NCc4ccco4)ncnc32)[C@H](O)[C@@H]1O` [Compound 3, N^6-furfuryladenosine, reference compound] came in with a half-maximal cytotoxic concentration (CC50) in data set [2] of 7800 ± 3400 nM. In the data set on EV71 strain BrCr, the EC50 was found to be 1400 ± 300 nM and the “SI (Selectivity Index)” value is reported as 5.6.

Regarding `CC(C)=CCNc1ncnc2c1ncn2[C@@H]1O[C@H](CO)[C@@H](O)[C@H]1O` [Compound 2, N^6-isopenthenyladenosine, reference compound], in data set [2], the CC50 was 6000 ± 600 nM. Besides, in the data set with EV71 strain BrCr, the midpoint of the response, the EC50, lay at 1000 ± 200 nM and the “SI (Selectivity Index)” value stood at 6.0.

Usually CC50 stands for the concentration at which the toxic effect on the cells reaches its halfway point. Low readings indicate harm at low concentration, high ones better tolerance by the cells. For orientation: EC50 means the concentration that produces a half-maximal response.
